Experiments:
[1] = molecular target: T1, A1 adenosine receptors in membranes from feline PAECs (Felis catus, UniProt A0ABI7XJE9); assay: Competition experiments for [3H] DPCPX in feline PAEC membranes; format: binding; conditions: cultured feline PAEC membranes
T1 sequence (A0ABI7XJE9 1-326): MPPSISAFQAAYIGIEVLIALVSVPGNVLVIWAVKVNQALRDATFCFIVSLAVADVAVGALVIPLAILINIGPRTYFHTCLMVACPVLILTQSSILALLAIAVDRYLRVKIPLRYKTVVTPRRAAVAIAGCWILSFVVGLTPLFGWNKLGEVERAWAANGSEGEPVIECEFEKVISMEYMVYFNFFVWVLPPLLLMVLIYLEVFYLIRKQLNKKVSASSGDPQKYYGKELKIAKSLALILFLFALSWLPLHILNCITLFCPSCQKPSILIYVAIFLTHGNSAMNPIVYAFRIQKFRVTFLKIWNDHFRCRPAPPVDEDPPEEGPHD
Protocol: (§1) Feline PAECs were grown to confluency in […] culture plates. The confluent cells were washed twice with KSP buffer (10 mM KH2P04, 50 mM sucrose). The cells were scraped and suspended in KSP buffer at a concentration of 1×10^6 cells/ml in two conical centrifuge tubes. The tubes were centrifuged at 1000 g×2 minutes and the buffer discarded. The cells from one tube were then suspended in deoxygenated buffer (bubbled with N2 gas for 10 minutes) and bubbled with N2 gas for 30 seconds to insure hypoxic conditions. These cells were then incubated for 2 hours in this hypoxic buffer. Cells from the other tube were suspended in normal KSP buffer and incubated at 37° C. for 2 hours. At the end of incubation, cells were homogenized immediately for membrane preparation.
For membrane preparation, the cells were homogenized by sonication and centrifuged at 1000× g for 10 minutes. The supernatant was centrifuged again at 30,000× g for 30 minutes. […]
Radioligand binding data are analyzed with the use of Graph Pad Prism by nonlinear regression analysis equipped with a statistical package. Data are expressed as mean±SEM. Hill plots and Schild plots are determined for each species of LPS in competition experiments and are used as standard curves for the determinations of the concentration of endotoxin in samples with unknown concentrations of endotoxin.

A1 adenosine receptor = molecular target: T2, A1 adenosine receptor (Homo sapiens, UniProt P30542); conditions: in tissues; cited from earlier work
T2 construct: host or cells: tissues (not specified)
T2 sequence (P30542 1-326): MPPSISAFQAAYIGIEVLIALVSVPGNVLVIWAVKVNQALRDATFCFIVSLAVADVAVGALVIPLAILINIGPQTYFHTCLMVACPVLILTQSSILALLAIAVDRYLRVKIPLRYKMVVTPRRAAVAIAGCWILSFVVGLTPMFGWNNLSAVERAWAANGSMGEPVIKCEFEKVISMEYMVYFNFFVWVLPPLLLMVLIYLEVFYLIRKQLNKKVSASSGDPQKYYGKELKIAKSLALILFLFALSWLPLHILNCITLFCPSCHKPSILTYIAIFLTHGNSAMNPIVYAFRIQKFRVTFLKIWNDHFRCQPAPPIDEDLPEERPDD

[2] = molecular target: T3, A1 adenosine receptors in sheep brain membranes (Ovis aries, UniProt A0ACI6R3B7); assay: Saturation experiments with [3H] DPCPX or [3H] CCPA in sheep brain membranes; format: binding
T3 sequence (A0ACI6R3B7 1-326): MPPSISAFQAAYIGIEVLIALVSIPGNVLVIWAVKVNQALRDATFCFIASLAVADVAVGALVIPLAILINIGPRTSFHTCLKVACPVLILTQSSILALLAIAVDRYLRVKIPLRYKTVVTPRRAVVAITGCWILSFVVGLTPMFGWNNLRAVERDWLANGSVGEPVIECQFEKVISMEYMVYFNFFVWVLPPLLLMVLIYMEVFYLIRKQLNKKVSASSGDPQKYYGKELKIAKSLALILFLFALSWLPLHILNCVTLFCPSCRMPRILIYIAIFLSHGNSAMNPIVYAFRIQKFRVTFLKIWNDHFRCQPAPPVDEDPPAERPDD
Protocol: (§2) Frozen sheep brain (Pel Freeze, Rodgers, Ark.) or hamster brain (Harlan Bioproducts, Indianapolis, Ind.) was thawed and homogenized in 10 volumes of cold (4° C.), 0.32 M sucrose. The homogenate was centrifuged at 1,000× g for 10 minutes to remove the nuclear fraction. The supernatant was centrifuged at 30,000× g for 30 minutes. The resulting pellet was resuspended in 10 ml water and left on ice for 30 minutes to obtain synaptosomal membranes. The suspension was then centrifuged at 48,000× g for 10 minutes and the membranes resuspended in 50 mM Tris-HCl (pH 7.4) at a concentration of 8 mg protein/ml, frozen in liquid nitrogen, and stored at −20° C. until binding assay.
(§3) Binding of [^3H] DPCPX or [^3H] CCPA to membranes was carried out in an assay volume of 500 μl Tris-HCl, pH 7.4, MgCl2 (10 mM) (for membranes from feline PAECs only) containing [^3H] DPCPX or [^3H] CCPA (0.01 to 4 nM). Nonspecific binding of [^3H] DPCPX or [^3H] CCPA was determined in the presence of R-PIA (100 μM) or theophylline (1 mM), respectively. To remove endogenous adenosine, adenosine deaminase was present in all binding assays at a concentration of 0.2 U/ml. Incubations were performed for 2 hours at room temperature for sheep and hamster brain membranes and 4° C. for feline PAEC membranes. Incubations were terminated by rapid removal of the incubation buffer by filtration through Whatman GF/B filters (Whatman Inc., Clifton, N.J.). The membrane bound radioactivity was measured by scintillation counting of the filter paper. To determine Kd, Bmax, and nonspecific binding in sheep and hamster brain and feline PAEC membranes, experiments are performed in duplicate.

[3] = molecular target: T4, A1 adenosine receptors in hamster brain membranes (Mesocricetus auratus, UniProt A0A1U8BVR4); assay: Saturation experiments with [3H] DPCPX or [3H] CCPA in hamster brain membranes; format: binding
T4 sequence (A0A1U8BVR4 1-326): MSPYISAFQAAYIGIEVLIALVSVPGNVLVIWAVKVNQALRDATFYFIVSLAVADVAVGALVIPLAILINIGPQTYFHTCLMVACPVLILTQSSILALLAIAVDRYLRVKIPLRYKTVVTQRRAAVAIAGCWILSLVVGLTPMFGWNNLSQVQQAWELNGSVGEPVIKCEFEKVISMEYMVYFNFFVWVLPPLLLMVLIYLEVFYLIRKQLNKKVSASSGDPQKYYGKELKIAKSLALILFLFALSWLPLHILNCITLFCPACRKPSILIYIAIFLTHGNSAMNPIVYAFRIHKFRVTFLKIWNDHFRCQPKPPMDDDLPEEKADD
Protocol: as §2, §3

[4] = molecular target: T1, A1 adenosine receptors in membranes from feline PAECs; assay: Saturation experiments with [3H] DPCPX in feline PAEC membranes; format: binding
Protocol: as §1
For membrane preparation, the cells were homogenized by sonication and centrifuged at 1000× g for 10 minutes. The supernatant was centrifuged again at 30,000× g for 30 minutes. The membrane fraction was reconstituted with Tris buffer for radioligand binding studies.
as §3

Nc1nc(Nc2ccccc2)nc2c1ncn2[C@@H]1O[C@H](CO)[C@@H](O)[C@H]1O [CV 1808, 2-phenylaminoadenosine]
displacement of bound [3H] DPCPX [1]: did not displace

CCCn1c(=O)c2[nH]c(C3CCCC3)nc2n(CCC)c1=O [DPCPX, 1,3-dipropyl-8-cyclopentylxanthine]
nonspecific binding (A1 adenosine receptor): less than 1%

OC[C@H]1O[C@@H](n2cnc3c(NC4CCCC4)nc(Cl)nc32)[C@H](O)[C@@H]1O [[^3H] CCPA, 2-chloro-N^6-cyclopentyladenosine]
density of high affinity A1 adenosine receptors ([2]; sheep brain, determined using [3H] CCPA): 1920 ± 250 fmol/mg
density of high affinity A1 adenosine receptors ([3]; hamster brain, determined using [3H] CCPA): 1630 ± 60 fmol/mg

CCCn1c(=O)c2[nH]c(C3CCCC3)nc2n(CCC)c1=O [[^3H]-DPCPX, [^3H]-1,3-dipropyl-8-cyclopentyladenosine xanthine]
Kd ([2]; sheep brain membranes): 370 pM
Bmax ([2]; sheep brain membranes, [3H]-DPCPX saturation): 2251 fmoles/mg protein
Kd ([3]; hamster brain membranes): 320 pM
Bmax ([3]; hamster brain membranes, [3H]-DPCPX saturation): 3733 fmoles/mg protein
Bmax ([4]; hypoxia): 1458 fmoles/mg protein
Kd ([4]; hypoxia): 260 pM
Bmax ([4]; normoxia): 1064 fmoles/mg protein
Kd ([4]; normoxia): 330 pM
